Measurements published in US20220235008A1, “PLEUROMULIN 7-CHLORO-1-CYCLOPROPYL-6-FLUORO-1,4-DIHYDRO-4-OXOQUINOLINE-3-CARBOXYLIC ACID ESTER WITH ANTIBACTERIAL ACTIVITY AND A METHOD OF PREPARING THE SAME” (SHAANXI UNIVERSITY OF SCIENCE AND TECHNOLOGY, priority 2021, published 2022).

Legend:
Type in all cases: cell-based
[1] = test system: multi-resistant Staphylococcus aureus 206 (MRSA-206); test: paper diffusion method drug sensitivity test, MRSA-206; settings: 30 μg/tablet; for Zone of inhibition, MRSA-206: paper 6.35 mm diameter, LB plate, 37° C., 24 h, >17 mm sensitive, 15 mm-16 mm intermediary, <14 mm drug resistance; for inhibitory effect (in words) on multi-drug resistant Staphylococcus aureus 206: paper diffusion, summary of FIGS. 1-3 and Table 1
Protocol: (§1) The antimicrobial efficacy was determined by a paper diffusion method drug sensitivity test.
(§2) Experimental strains: multi-resistant Staphylococcus aureus 206 (MRSA-206), multi-resistant Staphylococcus aureus 575 (MRSA-575), multi-resistant Staphylococcus aureus 596 (MRSA-596). The experimental strain was identified by Huashan Hospital Affiliated to Fudan University (Institute of Antibiotic of Fudan University).
(§3) Drug sensitive paper: The drug sensitive paper was a special drug sensitive paper with a diameter of 6.35 mm and a water absorption of 0.02 mL. The control drug was vancomycin (30 μg/tablet); the test drugs were pleuromulin (30 μg/tablet), 7-chloro-1-cyclopropyl-6-fluoro-1,4-dihydro-4-oxoquinoline-3-carboxylic acid (30 μg/tablet) and pleuromulin 7-chloro-1-cyclopropyl-6-fluoro-1,4-dihydro-4-oxoquinoline-3-carboxylic acid ester (30 μg/tablet).
(§4) Reagents: LB agar medium, LA broth medium, 0.5% DMSO solution.
(§5) The experimental strains were inoculated in non-selective medium and placed in air at 37° C. for 24 h. A single colony that grows well and inoculate it into broth medium was incubate at 35° C.±2° C. for 6 hours, and LA broth medium was used to calibrate the concentration of the bacterial solution to 0.5 Mie turbidimetric tube (1.5×10^8 CFU/mL). A bacterial suspension was obtained.
(§6) LB dry powder was weighed, sterilized at 103.4 Kpa, 121.3° C. high-pressure steam for 15 min, and then placed it in a 40° C.-50° C. water bath. A sterile empty plate (inner diameter 9 cm) was placed on the surface of the ultra-clean table water table, and […] to the plate. The thickness of each plate was 3 mm to 4 mm. After the plate was cooled at room temperature, it was stored in the refrigerator at 2° C.-8° C. A sterile cotton swab was used to dip the bacterial solution and to evenly coat the surface of the LB plate 3 times. After inoculation of the bacterial suspension, the LB plate was dried at room temperature for 3 min to 5 min. Sterile forceps were used to closely attach the antibacterial drug paper to the dish. The dish was put upside down and placed in a 37° C. incubator for 24 h. The results were observed by measuring the diameter. Taking 0.5% DMSO solution as a negative control, the antibacterial activity is expressed by the diameter of the inhibition zone. The inhibition zone >17 mm, sensitive; the inhibition zone of 15 mm-16 mm, intermediary; the inhibition zone <14 mm, drug resistance.

[2] = test system: multi-resistant Staphylococcus aureus 575 (MRSA-575); test: paper diffusion method drug sensitivity test, MRSA-575; settings: 30 μg/tablet; for Zone of inhibition, MRSA-575: paper 6.35 mm diameter, LB plate, 37° C., 24 h, >17 mm sensitive, 15 mm-16 mm intermediary, <14 mm drug resistance; for inhibitory effect (in words) on multi-drug resistant Staphylococcus aureus 575: paper diffusion, summary of FIGS. 1-3 and Table 1
Protocol: as §1, §2, §3, §4, §5, §6

[3] = test system: multi-resistant Staphylococcus aureus 596 (MRSA-596); test: paper diffusion method drug sensitivity test, MRSA-596; settings: 30 μg/tablet; for Zone of inhibition, MRSA-596: paper 6.35 mm diameter, LB plate, 37° C., 24 h, >17 mm sensitive, 15 mm-16 mm intermediary, <14 mm drug resistance; for inhibitory effect (in words) on multi-drug resistant Staphylococcus aureus 596: paper diffusion, summary of FIGS. 1-3 and Table 1
Protocol: as §1, §2, §3, §4, §5, §6

Structure (SMILES) | Zone of inhibition, MRSA-206 [1] [mm] | inhibitory effect (in words) on multi-drug resistant Staphylococcus aureus 206 [1] | Zone of inhibition, MRSA-575 [2] [mm] | inhibitory effect (in words) on multi-drug resistant Staphylococcus aureus 575 [2] | Zone of inhibition, MRSA-596 [3] [mm] | inhibitory effect (in words) on multi-drug resistant Staphylococcus aureus 596 [3]
C=C[C@]1(C)C[C@@H](OC(=O)COC(=O)C2CN(C3CC3)c3cc(Cl)c(F)cc3C2=O)[C@]2(C)CC[C@@H](C)[C@@]3(CCC(=O)[C@@H]23)[C@@H](C)[C@@H]1O (stereo partly drawn) [2-(((3aS,4R,5S,6S,8R,9R,9aR,12R)-5-hydroxy-4,6,9,12-tetramethyl-1-oxo-6-vinyldecahydro-3a, 9-propanocyclopenta[8]annulen-8-yl)oxy)-2-oxoethyl-7-chloro-1-cyclopropyl-6-fluoro-4-oxo-1,2,3,4-tetrahydroquinoline-3-carboxylate] | 16 | strong inhibitory effects | 12 | strong inhibitory effects | 25 | strong inhibitory effects
O=C(O)c1cn(C2CC2)c2cc(Cl)c(F)cc2c1=O [7-Chloro-1-cyclopropyl-6-fluoro-1,4-dihydro-4-oxoquinoline-3-carboxylic acid] | 0 | no inhibitory effect | 0 | no inhibitory effect | 0 | no inhibitory effect
C=C[C@]1(C)C[C@@H](OC(=O)CO)[C@]2(C)[C@H](C)CC[C@]3(CCC(=O)[C@H]32)[C@@H](C)[C@@H]1O [Pleuromulin] | 0 | no inhibitory effect | 0 | no inhibitory effect | 0 | no inhibitory effect
CN[C@H](CC(C)C)C(=O)N[C@H]1C(=O)N[C@@H](CC(N)=O)C(=O)N[C@H]2C(=O)N[C@H]3C(=O)N[C@H](C(=O)N[C@H](C(=O)O)c4cc(O)cc(O)c4-c4cc3ccc4O)[C@H](O)c3ccc(c(Cl)c3)Oc3cc2cc(c3O[C@@H]2O[C@H](CO)[C@@H](O)[C@H](O)[C@H]2O[C@H]2C[C@](C)(N)[C@H](O)[C@H](C)O2)Oc2ccc(cc2Cl)[C@H]1O [Vancomycin] | 15 | – | 17 | – | 23 | –
